# Molecular target: T1, Chk2 (Homo sapiens, UniProt O96017)
# T1 construct: made in house; host or cells: E. coli BL21 Star (Invitrogen)
# Test: Chk2 inhibitor IMAP assay (high-throughput Chk2 screening assay)
# Format: biochemical
# Details: IMAP fluorescence polarization assay, 10 μM ATP
# Method: Compounds set forth in Table 1 were tested in the Chk2 inhibitor IMAP assay described herein in Example 6.84. […] The letters given for the Chk2 EC50 values in Table 1 represent the following ranges: A=<100 nM; B=100-300 nM; C=300-1000 nM; D=1-10 μM; and E>10 μM.
# Compounds can be screened for Chk2 inhibitory activity using a high-throughput screening assay based in the immobilized metal ion affinity-based fluorescence polarization (IMAP) assay developed by Molecular Devices. This assay is based on the high affinity binding of phosphate by immobilized metal (MIII) coordination complexes on nanoparticles. A fluorescein-labeled peptide substrate is used as the substrate for the kinase activity of Chk2 in the assay. The IMAP binding reagent stops the kinase reaction. The binding of the binding reagent results in a change in the rate of molecular motion of the peptide and causes an increase in the fluorescence polarization value observed for the fluorescein label attached to the end of the peptide. Thus, inhibition of Chk2 would result in a decrease in fluorescence polarization compared to control.
# A specific protocol for screening Compounds for Chk2 inhibitory activity follows.
# A Compound is supplied at 1 mM in 0.5 μl DMSO on 384 well plates (such as Greiner or Corning). After thawing, 5 μl DMSO is added to the drug plate. The drug plate is then incubated for 10 minutes to solubilize the Compound. An additional 19.5 μl of reaction buffer (10× stock prepared using 100 mM Tris-HCl, 100 mM MgCl2, 1% BSA, pH 7.2, stored at 4° C.)+1 mM DDT is added to bring the Compound to 4× final concentration. A positive control is also prepared at 4× final concentration. The following control wells are used: less enzyme control (all reagents except enzyme; 5 μl/well), less Compound control (all reagents except Compound; 5 μl/well), positive control (all reagents plus staurosporine at a final concentration of 5 μM; 5 μl/well).
# Reagents are then added in the following order to give the following final concentration: 2.5 μl ATP/Chk2tide (Molecular Devices) (10 μM/100 nM final concentration), 1.25 μl Compound (5 μM final concentration inf 5.5% DMSO), and 1.25 μl Chk2 (1:500, 2.4 μg/mL final concentration).
# Plates are covered and incubated at room temperature for 60 minutes.
# IMAP binding reagent (Molecular Devices) is diluted 1:400 into binding buffer (Molecular Devices). 15 μl of this solution is then added to all wells and the plates are covered and incubated for 30 minutes.
# Plates are read using a Tecan Ultra under the fluorescence polarization mode. Gain is set to the less enzyme and less Compound wells for each plate. Excitation 485 nm, emmission 535 nm, Z position 12519 and flashes 5 are used as settings. Raw data from the Tecan reader is imported into an access database for analysis.
# T1 sequence (O96017 whole entry): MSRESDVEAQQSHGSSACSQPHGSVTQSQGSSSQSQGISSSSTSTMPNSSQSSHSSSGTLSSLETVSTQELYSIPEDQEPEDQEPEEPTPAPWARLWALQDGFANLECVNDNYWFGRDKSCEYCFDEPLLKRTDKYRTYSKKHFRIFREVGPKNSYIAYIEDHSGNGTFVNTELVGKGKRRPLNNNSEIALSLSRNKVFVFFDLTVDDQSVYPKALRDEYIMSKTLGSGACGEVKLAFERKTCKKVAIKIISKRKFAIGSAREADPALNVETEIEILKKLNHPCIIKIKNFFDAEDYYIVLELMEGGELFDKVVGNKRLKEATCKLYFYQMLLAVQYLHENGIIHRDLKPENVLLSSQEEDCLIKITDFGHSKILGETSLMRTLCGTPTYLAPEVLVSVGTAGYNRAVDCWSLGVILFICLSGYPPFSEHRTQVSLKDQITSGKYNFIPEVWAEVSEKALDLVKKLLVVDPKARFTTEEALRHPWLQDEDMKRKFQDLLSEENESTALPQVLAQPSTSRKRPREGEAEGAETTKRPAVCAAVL
row,SMILES,EC50
1,COc1cc2nc(NC(=O)c3ccc(/C(C)=N/NC(=N)N)cc3)sc2cc1OC [Compound 46],1 to 10 µM
2,C/C(=N\NC(=N)N)c1ccc(NC(=O)c2cc3ccccc3cn2)cc1 [Compound 58],1 to 10 µM
3,C/C(=N\NC(=N)N)c1ccc(NC(=O)c2nc3ccccc3[nH]2)cc1 [Compound 100],> 10 µM
4,C/C(=N\NC(=N)N)c1ccc(NC(=O)c2cc3cc(Cl)ccc3[nH]2)cc1 [Compound 67],1 to 10 µM
5,N=C(N)N/N=C1\CCc2cc(NC(=O)c3cc4cccc([N+](=O)[O-])c4[nH]3)ccc21 [Compound 96],1 to 10 µM
6,COc1cccc2sc(NC(=O)c3ccc(/C(C)=N\NC(=N)N)cc3)nc12 [Compound 44],> 10 µM
7,C/C(=N\NC(=N)N)c1ccc(NC(=O)c2ccc(-c3cnc(N)nc3)cc2)cc1 [Compound 47],0.3 to 1 µM
8,C/C(=N\NC(=N)N)c1ccc2[nH]c(C(=O)Nc3ccc4cnccc4n3)cc2c1 [Compound 122],> 10 µM
9,COc1cc2nc(NC(=O)c3ccc(/C(C)=N\NC(=N)N)cc3)sc2cc1OC [Compound 45],1 to 10 µM
10,"CC(C)CC(=NNC(=N)N)c1ccc2[nH]c(C(=O)Nc3ccc4cc[nH]c4c3)cc2c1 (single isomer, unassigned) [Compound 124]",1 to 10 µM
11,C/C(=N\NC(=N)N)c1ccc2[nH]c(C(=O)Nc3ccc(N)cc3)cc2c1 [Compound 114],1 to 10 µM
12,C/C(=N/NC(=N)N)c1ccc(NC(=O)c2cc3cc(OC(F)(F)F)ccc3[nH]2)cc1 [Compound 33],1 to 10 µM
13,COc1ccc2[nH]c(C(=O)Nc3ccc4c(c3)CCC/C4=N\NC(=N)N)cc2c1 [Compound 105],0.3 to 1 µM
14,CC(=NNC(N)=NO)c1ccc(NC(=O)c2cc3cccc([N+](=O)[O-])c3[nH]2)cc1 [Compound 118],< 0.1 µM
15,C/C(=N\NC(=N)N)c1ccc(NC(=O)Nc2ccc(C)cc2)cc1 [Compound 50],1 to 10 µM
16,C/C(=N\NC(=N)N)c1ccc(NC(=O)Nc2ccc(I)cc2)cc1 [Compound 38],0.3 to 1 µM
17,C/C(=N\NC(=N)N)c1ccc(NC(=O)c2cc3ccccc3o2)cc1 [Compound 52],1 to 10 µM
18,C/C(=N\NC(=N)N)c1ccc2[nH]c(C(=O)Nc3ccc(C(N)=O)cc3)cc2c1 [Compound 115],0.1 to 0.3 µM
19,C/C(=N\NC(=N)N)c1ccc(NC(=O)Nc2ccc(-c3csc(NN)n3)cc2)cc1 [Compound 48],> 10 µM
20,CC(=O)c1ccc2[nH]c(C(=O)Nc3ccc(/C(C)=N/NC(=N)N)cc3)cc2c1 [Compound 71],< 0.1 µM
21,C/C(=N\NC(=N)N)c1ccc(NC(=O)c2ccc3c(c2)CCC/C3=N\NC(=N)N)cc1 [Compound 79],1 to 10 µM
22,C/C(=N\NC(=N)N)c1ccc(NC(=O)c2cc3cc(Br)ccc3o2)cc1 [Compound 32],1 to 10 µM

row,SMILES,EC50
1,C/C(=N\NC(=N)N)c1ccc(NC(=O)c2cc3cccc(NS(N)(=O)=O)c3[nH]2)cc1 [Compound 95],1 to 10 µM
2,C/C(=N\NC1=NCCN1)c1ccc(NC(=O)Nc2ccc(/C(C)=N/NC3=NCCN3)cc2)cc1 [Compound 15],< 0.1 µM
3,CC(=NNC(=N)N)c1ccc(NC(=O)Nc2ccc3c(c2)CCC(C)C3=NNC(=N)N)cc1 (stereo not shown) [Compound 5],0.3 to 1 µM
4,C/C(=N\NC(=N)N)c1ccc(NC(=O)Nc2ccc(Br)cc2)cc1 [Compound 37],0.1 to 0.3 µM
5,CCCC(=NNC(=N)N)c1ccc(NC(=O)Nc2ccc(C(CCC)=NNC(=N)N)cc2)cc1 [Compound 3],< 0.1 µM
6,C/C(=N\NC(=N)N)c1ccc2[nH]c(C(=O)Nc3cccc4[nH]ccc34)cc2c1 [Compound 108],1 to 10 µM
7,C/C(=N\NC(=N)N)c1ccc(NC(=O)c2cc3ccc(Cl)cc3[nH]2)cc1 [Compound 94],0.3 to 1 µM
8,C/C(=N\NC(=N)N)c1ccc(NC(=O)c2cc3cc(C(N)=O)ccc3[nH]2)cc1 [Compound 27],0.1 to 0.3 µM
9,C/C(=N\NC(=N)N)c1ccc2[nH]c(C(=O)Nc3ccc4[nH]ccc4c3)cc2c1 [Compound 80],0.3 to 1 µM
10,"CCCC(=NNC(=N)N)c1ccc2[nH]c(C(=O)Nc3ccc4cc[nH]c4c3)cc2c1 (single isomer, unassigned) [Compound 113]",0.3 to 1 µM
11,CC/C(=N\NC(=N)N)c1ccc(NC(=O)c2ccco2)cc1 [Compound 53],1 to 10 µM
12,C/C(=N\NC1=NCCN1)c1ccc(NC(=O)c2cc3cccc([N+](=O)[O-])c3[nH]2)cc1 [Compound 22],< 0.1 µM
13,"CCCC(=NNC(=N)N)c1ccc2[nH]c(C(=O)Nc3ccc4cc[nH]c4c3)cc2c1 (single isomer, unassigned) [Compound 112]",< 0.1 µM
14,C/C(=N\NC(=N)N)c1ccc2[nH]c(C(=O)Nc3ccccn3)cc2c1 [Compound 104],> 10 µM
15,CC(=O)c1ccc(NC(=O)Nc2ccc(/C(C)=N/NC(=N)N)cc2)cc1 [Compound 36],0.1 to 0.3 µM
16,C/C(=N\NC(=N)N)c1ccc(NC(=O)Nc2ccc(/C(C)=N/NC(=N)N)c(C)c2)cc1 [Compound 4],0.1 to 0.3 µM
17,C/C(=N\NC(=N)N)c1ccc(NC(=O)Nc2ccc(C#N)cc2)cc1 [Compound 20],< 0.1 µM
18,CCC/C(=N\NC(=N)N)c1ccc(NC(=O)Nc2ccc(/C(C)=N/NC(=N)N)cc2)cc1 [Compound 1],< 0.1 µM
19,C/C(=N\NC(=N)N)c1ccc(NC(=O)c2cc3ccc(S(C)(=O)=O)cc3[nH]2)cc1 [Compound 89],0.3 to 1 µM
20,C/C(=N\N/C(N)=N/O)c1ccc(NC(=O)c2cc3cc(C(N)=O)ccc3[nH]2)cc1 [Compound 129],0.3 to 1 µM
21,C/C(=N\NC(=N)N)c1ccc(NC(=O)c2cc3cccc(/C(C)=N/NC(=N)N)c3[nH]2)cc1 [Compound 68],1 to 10 µM
22,CC(=O)Nc1cccc2cc(C(=O)Nc3ccc(/C(C)=N/NC(=N)N)cc3)[nH]c12 [Compound 76],0.3 to 1 µM

row,SMILES,EC50
1,C/C(=N\NC(=N)N)c1ccc(NC(=O)c2cc3ccc(C)cc3[nH]2)cc1 [Compound 93],0.3 to 1 µM
2,COC(=O)c1ccc(NC(=O)Nc2ccc(/C(C)=N/NC(=N)N)cc2)cc1 [Compound 56],1 to 10 µM
3,C/C(=N/NC(=N)N)c1ccc(NC(=O)c2[nH]c3ccccc3c2Br)cc1 [Compound 30],0.3 to 1 µM
4,C/C(=N\NC(=N)N)c1ccc(NC(=O)Nc2ccc(/C(=N/NC(=N)N)c3ccccc3)cc2)cc1 [Compound 55],> 10 µM
5,C/C(=N\NC(=N)N)c1ccc(NC(=O)Nc2ccc(Cl)cc2)cc1 [Compound 57],1 to 10 µM
6,C/C(=N\NC(=N)N)c1ccc(NC(=O)Nc2ccc(/C(=N/NC(=N)N)C(C)C)cc2)cc1 [Compound 51],1 to 10 µM
7,C/C(=N\NC(=N)N)c1ccc(NC(=O)c2cc3cc(C(CC(C)C)=NNC(=N)N)ccc3[nH]2)cc1 [Compound 130],< 0.1 µM
8,C/C(=N\NC(=N)N)c1ccc2[nH]c(C(=O)Nc3cc(C)ccn3)cc2c1 [Compound 102],1 to 10 µM
9,C/C(=N\NC(=N)N)c1ccc(NC(=O)c2cc3ccc(N)cc3[nH]2)cc1 [Compound 83],1 to 10 µM
10,C/C(=N/NC(=N)N)c1ccc2[nH]c(C(=O)Nc3ccc(-n4ccnc4)cc3)cc2c1 [Compound 127],0.1 to 0.3 µM
11,"CCC/C(=N/NC(=N)N)c1ccc(NC(=O)c2cc3cc(OC)ccc3[nH]2)cc1 (single isomer, unassigned) [Compound 26]",0.3 to 1 µM
12,C/C(=N\NC(=N)N)c1ccc(NC(=O)c2cc3cccc([N+](=O)[O-])c3[nH]2)cc1C [Compound 84],1 to 10 µM
13,C/C(=N/NC(=N)N)c1ccc(NC(=O)Nc2ccc(NC(=O)/C(C)=N/NC(=N)N)cc2)cc1 [Compound 12],0.3 to 1 µM
14,COc1ccc2[nH]c(C(=O)Nc3ccc(C(C)=NNC(N)=NO)cc3)cc2c1 [Compound 117],< 0.1 µM
15,"CC(C)CC(=NNC(=N)N)c1ccc2[nH]c(C(=O)Nc3ccc4cc[nH]c4c3)cc2c1 (single isomer, unassigned) [Compound 123]",< 0.1 µM
16,COc1cc(OC)c2cc(C(=O)Nc3ccc(/C(C)=N/NC(=N)N)cc3)[nH]c2c1 [Compound 40],1 to 10 µM
17,COc1cccc2cc(C(=O)Nc3ccc(C(C)=NNC(=N)N)cc3)[nH]c12 [Compound 75],1 to 10 µM
18,C/C(=N\NC(=N)N)c1ccc2[nH]c(C(=O)Nc3ccc4[nH]c(C)cc4c3)cc2c1 [Compound 109],0.3 to 1 µM
19,CC(=O)c1ccc(NC(=O)c2cc3cc(/C(C)=N/NC(=N)N)ccc3[nH]2)cc1 [Compound 72],0.3 to 1 µM
20,COc1ccc2nc(C(=O)Nc3ccc(/C(C)=N/NC(=N)N)cc3)sc2c1 [Compound 82],1 to 10 µM

# From patent US8765802B2, “Kinase inhibitors, compositions thereof, and methods of use therewith” (Provid Pharmaceuticals, Inc., priority 2007, dated 2014)
